In patent US20010012854A1, “MULTICATALYTIC PROTEASE INHIBITORS FOR USE AS ANTI-TUMOR AGENTS” (priority 1997, published 2001):

How the values were obtained:
[1] = biological target: MCP chymotrypsin-like activity (Homo sapiens, UniProt P28074); assay: Inhibition of MCP chymotrypsin-like activity; assay type: biochemical
Source text: (§1) The rank-order potency for Jurkat cell killing precisely matched the order for MCP inhibition (Table 2, below).
Inhibition of the chymotrypsin-like activity of MCP by the disclosed MCP inhibitors has been reported, but these MCP inhibitors produced relatively little inhibition on the MCP trypsin-like activity and cathepsin B, a vacuolar cysteine protease (Iqbal, M., et al. J. Med Chem. 38: 2276-2277, 1995; Iqbal, M., et al. Bioorg. Med. Chem. Lett. 6: 287-290, 1996; and Harding, C. V., et al. J. Immuno. 155: 1767-1775, 1995). Furthermore, the order of potency for inhibition of the chymotrypsin-like activity was reported to be Compound A>Compound B>Compound C by using both isolated MCP and intact murine B cells (Iqbal, M., et al. J. Med Chem. 38: 2276-2277, 1995; Iqbal, M., et al. Bioorg. Med. Chem. Lett. 6: 287-290, 1996; and Harding, C. V., et al. J. Immuno. 155: 1767-1775, 1995).

[2] = system: Jurkat Human T Cell Leukemia Line; assay: Jurkat cell viability assay (XTT reduction); assay type: cell-based; details: Jurkat cells, 24 hours, viability by XTT reduction, read-out: Toxicity (IC50)
Protocol: f. Cell viability assay. Jurkat cells were treated with MCP inhibitors or vehicle for 30 min. at 37° C. Next, ionomycin (1 μM) and the phorbol ester PMA (10 ng/ml) were added, together with 0.2% ethanol. After 24 h, cell viability was assessed by reduction of XTT (Sigma, X4251). To each well, 50 μl of XTT (1 mg/ml) and 25 μl PMS (Sigma 9625, 5 mM) were added. After 3 h at 37° C., the OD of each well was read at 450 nm/690 nm by a plate reader.
as §1

[3] = system: murine melanoma cell line, B16-F0; assay: In vivo B16-F0 melanoma tumor growth in C57BL mice; details: 10 mg/kg/day, ip
Protocol: a. Materials: MCP inhibitors used for in vivo studies (Compounds D and E) were each formulated in 25% Solutol.
b. Cell line: The murine melanoma cell line, B16-F0, was grown at 37° C. in a humidified incubator, with a 95% air/5% CO2 atmosphere, in Dulbecco's modified Eagle's medium with 4.5 g/l glucose (Cellgro/Mediatech, Washington, D.C.) containing 10% fetal bovine serum (Hyclone Labs, Logan, Utah), 2 mM glutamine (GibcoBRL, Long Island, N.Y.), penicillin (100 I.U./mL) (GibcoBRL), and streptomycin (100 μg/mL) (GibcoBRL). The cells were determined to be free of mycoplasma and rodent viruses (MAP testing). Exponentially growing cells were harvested using 5 mL of warm trypsin/EDTA (0.05%, 0.5 mM)((GibcoBRL). The total volume was brought up to 10 mL with Complete Medium to neutralize trypsin and cells were counted with a hemocytometer. The cells were then collected by brief centrifugation and the cell pellet was resuspended in Phosphate Buffered Saline (GibcoBRL) to achieve the final concentration of 1×10^7 live cells/ml.
c. Animals: Female C57BL mice (20-25 g) obtained from Harlan Sprague Dawley, Indianapolis, Ind. were maintained five mice/cage and given a commercial diet and water ad libitum. […]
e. Tumor measurements: Tumors were measured using a vernier caliper every 2 to 3 days. Tumor volume was calculated using the formula: […]

[4] = system: Lewis Lung carcinoma xenografts; assay: In vivo growth of Lewis Lung carcinoma xenografts in athymic nude mice; set-up: species or system murine; details: 3 mg/kg, s.c., QD, 5 days a week, 12 days
Protocol: Female athymic nude mice were injected s.c. with 1×10^6 Lewis Lung carcinoma cells into the right rear flank. Upon tumors achieving 150 to 200 mm^3 in volume, mice were randomized into groups of ten animals each and dosing commenced with Compound I (2 mg/kg, s.c., QD, 5 days a week), Compound J (3 mg/kg, s.c., QD, 5 days a week), or vehicle alone (30% Solutol) for a total of 12 days. Tumor measurements (volume) were determined with vernier calipers in two dimensions every two to three days. Statistical analyses of drug-associated anti-tumor efficacy relative to vehicle-treated controls were conducted using the Mann-Whitney Rank sum test.

[5] = system: PANC-1 pancreatic carcinoma; assay: Calcein-AM viability assay, PANC-1; assay type: cell-based; details: Homo sapiens
Protocol: (§2) Cells were initially seeded in 96-well plates at varying density, then assayed using the Calcein-AM viability assay after 24 hours to determine the optimal final density for each cell type. Cells were then seeded in 96-well plates at this density in 100 μL of the proper cell media as follows:
(§3) Serial dilutions of the compounds were made so that concentrations were twice the desired concentration to be evaluated. When 100 μL of the dilution was then added to the cells plated in 100 μL of media, a final concentration of 0, 11.7, 46.9, 187.5, 375 and 750 nM was obtained. Compounds were added to the plates three to four hours after seeding the cells, then the plates were incubated at 37° C. for the desired time point (generally one, two, or three day incubations).
(§4) Calcein-AM viability assays were conducted at the desired time points as follows. Media were aspirated using a manifold and metal plate to leave approximately 50 μL/well. The wells were then washed three times with 200 μL DPBS (Gibco), aspirating each time with the manifold to leave 50 μL/well. A 8 μM solution of Calcein-AM (Molecular Probes) in DPBS was prepared and 150 μL was added to each well. The plates were then incubated at 37° C. for 30 minutes. […] After the final aspiration, fluorescence was measured using a Cytofluor 2300 fluorescence plate reader. […]

SKMEL-5 melanoma = assay: Calcein-AM viability assay, SKMEL-5; assay type: cell-based; details: Homo sapiens, SK-MEL-5
Protocol: as §2, §3, §4

[6] = system: OVCAR-3 ovarian carcinoma; assay: Calcein-AM viability assay, OVCAR-3; assay type: cell-based; details: Homo sapiens
Protocol: as §2, §3, §4

MCF-7 breast carcinoma = assay: Calcein-AM viability assay, MCF-7; assay type: cell-based; details: Homo sapiens, MCF7
Protocol: as §2, §3, §4

[7] = system: Lewis lung (murine) lung carcinoma; assay: Calcein-AM viability assay, Lewis Lung; assay type: cell-based; details: Mus musculus
Protocol: as §2, §3, §4

[8] = system: AT-2 (rat) prostatic carcinoma; assay: Calcein-AM viability assay, AT-2; assay type: cell-based
Protocol: as §2, §3, §4

[9] = system: DU145 prostatic carcinoma; assay: Calcein-AM viability assay, DU-145; assay type: cell-based; details: Homo sapiens
Protocol: as §2, §3, §4

Structure (SMILES)	IC50 [1]	IC50 [2]	Melanoma tumor growth (tumor volume) [3]	Lung carcinoma tumor growth (tumor volume) [4]	IC50 ([5]; PANC-1, 24 h)	IC50 ([5]; PANC-1, 72 h)	IC50 (SKMEL-5 melanoma; SKMEL-5, 24 h)	IC50 (SKMEL-5 melanoma; SKMEL-5, 72 h)	IC50 ([6]; OVCAR-3, 24 h)	IC50 ([6]; OVCAR-3, 72 h)	IC50 (MCF-7 breast carcinoma; MCF-7, 24 h)	IC50 (MCF-7 breast carcinoma; MCF-7, 72 h)	IC50 ([7]; 24 h)	IC50 ([7]; 72 h)	IC50 ([8]; AT-2, 24 h)	IC50 ([8]; AT-2, 72 h)	IC50 ([9]; DU-145, 24 h)	IC50 ([9]; DU-145, 72 h)
CC(C)C[C@H](NC(=O)[C@H](CCCNC(N)=N[N+](=O)[O-])NC(=O)C(CCCCCCCCC#N)C1CCCC1)B(O)O (stereo partly shown) [D]	5 nM	600 nM	inhibit melanoma tumor growth															
CC(C)C[C@@H](NC(=O)[C@H](CCCN/C(N)=N/[N+](=O)[O-])NC(=O)C(CCCCCCCCN1C(=O)c2ccccc2C1=O)C1CCCC1)B1O[C@H]2CC3CC(C3(C)C)C2(C)O1 (stereo partly shown) [Compound J]				inhibit lung carcinoma tumor growth	> 1000 nM	185 nM	427 nM	82 nM	> 1000 nM	29 nM	> 1000 nM	289 nM	411 nM	505 nM	> 1000 nM	> 1000 nM	385 nM	167 nM
CC(C)C[C@H](NC(=O)[C@H](CCCN/C(N)=N/[N+](=O)[O-])NC(=O)C(CCCCCCCCN1C(=O)c2ccccc2C1=O)C1CCCC1)B(O)O (stereo partly shown) [E]			inhibit melanoma tumor growth															
